# Experimental data: paper PMC7407272, “Induction of Lysosome Membrane Permeabilization as a Therapeutic Strategy to Target Pancreatic Cancer Stem Cells” (Cancers, 2020)
# Assays:
# [1] = system: PDAC4 3D spheres; experiment: Viability curves on PDAC4 3D spheres; format: cell-based, human; details: 30 h
# From the text: The PDAC patient-derived xenograft (PDX) Panc354 (referred to hereafter as PDAC3) was obtained from Dr. Manuel Hidalgo under a Material Transfer Agreement with the Spanish National Cancer Centre (CNIO), Madrid, Spain (Reference no. I409181220BSMH). PDAC1, PDAC2 and PDAC4 PDXs were established from primary patient resected tumors. Samples were provided by the BioBank Hospital Ramón y Cajal-IRYCIS (PT13/0010/0002), integrated in the Spanish National Biobanks Network and they were processed following standard operating procedures with the appropriate approval of the Ethical and Scientific Committees (Control no. No. Control: DE-BIOB-73 AC65, RG.BIOB-96 REV, and CI-BIOB-08-10-01 rev), with informed consent and according to Declaration of Helsinki principles. Primary patient tumors were subcutaneously implanted in immunocompromised female 6- to 8-week-old NU-Foxn1nu nude mice (Envigo, Barcelona, Spain) and subsequently passage in vivo to establish PDX PDAC1, PDAC2 and PDAC4. Primary PDX-derived in vitro cultures were established as previously detailed. […]
# Pancreatic CSC spheres were generated as previously described in ultra-low attachment plates (Corning) using CSC media: serum-free DMEM/F12 medium (1:1; #21331-020; Gibco, Waltham, MA, USA), supplemented with Pen/Strep (1:100; #1500-063; Gibco, Waltham, MA, USA), Fungizone (1:250; #15290-018; Gibco), L-Glutamine (1:100; #25030-024; Gibco, Waltham, MA, USA), B-27 (1:50; #17504-044; Gibco, Waltham, MA, USA) and basic fibroblast growth factor (FGF-b) (1:5000; Gibco, Waltham, MA, USA). […] To quantify spheres of > 40 μm, 1 mL of sample volume was analyzed with a CASY® Cell Counter (Roche Applied Sciences, Mannheim, Germany). […]
# [2] = system: sphere-derived PDAC2 cells; experiment: Tumor initiating capacity of pre-treated cells injected subcutaneously; format: in vivo, NU-Foxn1nu nude mice; details: cells treated 3 days with 0.1 µg/mL GEM or compound at 1.25 µM, then injected subcutaneously
# Description: (§1) Female 6- to 8-week-old NU-Foxn1nu nude mice (Envigo, Spain) were subcutaneously injected with control or pre-treated 1 × 10^4 PDAC cells in 50 µL of Matrigel^TM (Corning). Tumor growth was monitored bi-weekly for up to 10 weeks. For Siramesine experiments, mice were subcutaneously implanted with PDAC1 and PDAC3 PDXs. After 4 weeks of tumor growth, mice were randomized into treatment groups (5 mice per group). Mice were treated with Siramesine twice a week (30 mg/kg by oral gavage formulated in 0.5% methylcellulose 15 cP in 0.9% NaCl solution) for ~4 weeks. Gemcitabine (GEMZAR®, Eli Lilly, Indianapolis, IN, USA) was administered twice a week (125 mg/kg i.p.) for ~4 weeks. Tumor volumes (mm^3) were determined twice per week using a digital caliper. Mice were sacrificed at 24 days post treatment initiation and tumors were extracted and analyzed by flow cytometry as described above. For second generation tumor formation, 1000 and 100 cells of indicated treatment groups were resuspended in Matrigel ^TM and injected subcutaneously in recipient NU-Foxn1nu nude mice and tumor formation was monitored for 10 weeks. Mice were housed according to institutional guidelines and all experiments were performed in compliance with the institutional guidelines for the welfare of experimental animals approved by the Universidad Autónoma de Madrid Ethics Committee (CEI 60-1057-A068) or by the Instituto de Salud Carlos III Ethics Committee (CBA12_2014-v3) and La Comunidad de Madrid (PROEX 335/14 or PROEX 53/14) and in accordance with the guidelines for Ethical Conduct in the Care and Use of Animals as stated in The International Guiding Principles for Biomedical Research involving Animals, developed by the Council for International Organizations of Medical Sciences (CIOMS).
# [3] = system: PDAC3 xenografts; experiment: PDX treatment in nude mice; format: in vivo, NU-Foxn1nu nude mice; details: PDAC3 PDX; GEM 125 mg/kg i.p. biweekly, SIR 30 mg/kg oral gavage; 23 days
# Description: (§2) Cells were analyzed with a 4-laser Attune NxT Acoustic Cytometer (ThermoFisher Scientific). Cells and digested tumors (as described in [41]) were resuspended in FLOW buffer (1X PBS; 3 mM EDTA (v/v); 3% FBS (v/v)), and the following fluorescently-tagged antibodies were used to label cells for 30 min at 4 °C: Mouse monoclonal anti-human CD133-PE (1:20, Cat no. 130-110-962, Miltenyi, Bergisch Gladbach, Germany), Mouse monoclonal anti-human CD133-APC (1:20, Cat no. 130-111-080, Miltenyi, Bergisch Gladbach, Germany), mouse monoclonal anti-human C-X-C chemokine receptor type 4- Phycoerythrin (CXCR4-PE) (1:20, Cat no. 130-117-354, Miltenyi, Bergisch Gladbach, Germany), or mouse monoclonal anti-human Epithelial cell adhesion molecule-fluorescein isothiocyanate (EpCAM-FITC) (1:20, Cat no. 130-111-115, Miltenyi, Bergisch Gladbach, Germany). Autofluorescent cells were excited with blue laser 488nm and selected as the intersection with the filters 530/40 and 580/30 as previously described. For lysosomes quantification, Acridine Orange (AO) (A1301, Thermo Fisher Scientific, Waltham, MA, USA) or Lysotracker Deep Red (DR) (L12492, Molecular probes, Life Technologies, Waltham, MA, USA) were used. AO fluorescence was assessed with two combinations of excitation and emission spectra: BL1 […] BL3 (Ex488/Em695/40, equal to the far-red channel (>670 nm)) Lysotracker DR fluorescence was assessed with RL1 (Ex638/Em670/14). Bafilomycin A1 (100 nM, Calbiochem, San Diego, CA, USA) was included as a positive control for lysosome disruption. For Annexin V staining, floating and attached cells were pooled and resuspended in 1× AnnexinV staining buffer containing AnnexinV-APC diluted 1:20 (Biotium, Freemont, CA, USA) and incubated for 20 min at room temperature prior to flow cytometric analysis. For all assays, DAPI was used to mark and exclude dead cells, and data were analyzed using the software FlowJo v9.3 (Tree Star Inc., Ashland, OR, USA).
# as §1
# [4] = system: PDAC1 xenografts; experiment: PDX treatment in nude mice; format: in vivo, NU-Foxn1nu nude mice
# Description: as §2, §1
# [5] = system: PDAC1 tumor cells; experiment: Second generation tumor formation (serial passage, ELDA); format: in vivo, NU-Foxn1nu nude mice
# Description: as §1
# (§3) Results are presented as means ± standard error of the mean (SEM) unless stated otherwise. An unpaired two-tailed t test was performed to determine significance. p values < 0.05 were considered statistically significant. All analyses were performed using GraphPad Prism version 6.0 (San Diego, California USA). CSC frequencies and significance were determined using the on-line extreme-limiting dilution assays (ELDA) program (http://bioinf.wehi.edu.au/software/elda/).
# [6] = system: PDAC3 tumor cells; experiment: as above; format: in vivo, NU-Foxn1nu nude mice
# Description: as §1, §3
# [7] = system: PDAC2 cultures; experiment: Sphere formation assay; format: cell-based, human; details: 0.1 µg/mL GEM or Cpd 1 at 1.25 or 2.5 µM
# From the text: (§4) Pancreatic CSC spheres were generated as previously described in ultra-low attachment plates (Corning) using CSC media: serum-free DMEM/F12 medium (1:1; #21331-020; Gibco, Waltham, MA, USA), supplemented with Pen/Strep (1:100; #1500-063; Gibco, Waltham, MA, USA), Fungizone (1:250; #15290-018; Gibco), L-Glutamine (1:100; #25030-024; Gibco, Waltham, MA, USA), B-27 (1:50; #17504-044; Gibco, Waltham, MA, USA) and basic fibroblast growth factor (FGF-b) (1:5000; Gibco, Waltham, MA, USA). All cell culture was carried out at 37 °C in a 5% CO2 humidified incubator. To quantify spheres of > 40 μm, 1 mL of sample volume was analyzed with a CASY® Cell Counter (Roche Applied Sciences, Mannheim, Germany). The CASY® Cell Counter measuring principle is based on a capillary particle counter with pulse area analysis, that permits the determination of cell count, cell concentration, cell volume (peak), and average cell diameter, specifically diameters of 40–80 μm, 80–120 μm and >120 μm.
# [8] = system: PDAC4 cultures; experiment: Sphere formation assay; format: cell-based, human; details: 0.1 µg/mL GEM or Cpd 1 at 1.25 or 2.5 µM
# From the text: as §4
# [9] = system: PDAC2 3D spheres; experiment: Viability curves on PDAC2 3D spheres; format: cell-based, human; details: Homo sapiens, PDAC-2, 30 h; read-out: EC50 (viability), PDAC2 spheres
# From the text: The PDAC patient-derived xenograft (PDX) Panc354 (referred to hereafter as PDAC3) was obtained from Dr. Manuel Hidalgo under a Material Transfer Agreement with the Spanish National Cancer Centre (CNIO), Madrid, Spain (Reference no. I409181220BSMH). PDAC1, PDAC2 and PDAC4 PDXs were established from primary patient resected tumors. Samples were provided by the BioBank Hospital Ramón y Cajal-IRYCIS (PT13/0010/0002), integrated in the Spanish National Biobanks Network and they were processed following standard operating procedures with the appropriate approval of the Ethical and Scientific Committees (Control no. No. Control: DE-BIOB-73 AC65, RG.BIOB-96 REV, and CI-BIOB-08-10-01 rev), with informed consent and according to Declaration of Helsinki principles. Primary patient tumors were subcutaneously implanted in immunocompromised female 6- to 8-week-old NU-Foxn1nu nude mice (Envigo, Barcelona, Spain) and subsequently passage in vivo to establish PDX PDAC1, PDAC2 and PDAC4. Primary PDX-derived in vitro cultures were established as previously detailed. Briefly, xenografts were minced, enzymatically digested with collagenase (Stem Cell Technologies) for 60 min at 37 °C and after centrifugation for 5 min at 1800 rpm, the cell pellets were resuspended and cultured in RPMI (1:1; #61870-010; Gibco, Waltham, MA, USA) supplemented with 10% FBS (Invitrogen, Waltham, MA, USA), Pen/Strep (1:100; #1500-063; Gibco, Waltham, MA, USA), and Fungizone (1:250; #15290-018; Gibco, Waltham, MA, USA). Primary cultures were tested for Mycoplasma at least every 4 weeks.
# as §4
# Murine embryonic stem cells (mESCs) were plated at 20,000 cells per well in gelatinized 96 well plates. Compounds from the 640 compound ETP library were added by a Beckman FX 96 tip to achieve a final concentration of 5 µM in each well, and each compound was tested in duplicate. Cells were treated for a total of 30 h prior to assessing cell viability using CellTiter 96® AQueous One Solution Cell Proliferation Assay (MTS) assay according to manufacturer’s instructions (G3582, Promega, Madison, WI, USA). Dose response curves were carried out on mESCs under the same conditions using indicated compounds. To test the viability of CSCs, 10,000 PDAC cells were plated in spheroid conditions and immediately treated with indicated compounds and concentrations for the duration of the sphere formation assay. […]
# [10] = mESC viability (MTS) screen and dose response; format: cell-based, mouse; details: mouse, mouse embryonic stem cells (mESCs), 5 µM, MTS
# Description: (§5) Mouse embryonic stem cells were cultured in Dulbecco’s Modified Eagle Medium (DMEM) containing 15% Fetal bovine serum (FBS), non-essential amino acids (NEAA), 2-mercaptoethanol, and Leukemia inhibitory factor (LIF) and passaged on gelatinized plates under standard conditions.
# (§6) Murine embryonic stem cells (mESCs) were plated at 20,000 cells per well in gelatinized 96 well plates. Compounds from the 640 compound ETP library were added by a Beckman FX 96 tip to achieve a final concentration of 5 µM in each well, and each compound was tested in duplicate. Cells were treated for a total of 30 h prior to assessing cell viability using CellTiter 96® AQueous One Solution Cell Proliferation Assay (MTS) assay according to manufacturer’s instructions (G3582, Promega, Madison, WI, USA). Dose response curves were carried out on mESCs under the same conditions using indicated compounds. To test the viability of CSCs, 10,000 PDAC cells were plated in spheroid conditions and immediately treated with indicated compounds and concentrations for the duration of the sphere formation assay. For adherent non-CSCs, 20,000 cells were plated in wells of standard tissue culture-treated plates (Corning, Corning, NY, USA) and treated the following day with indicated compounds and concentrations. For re-plated spheres (Figure S1B), 7-day-old spheres were filtered using a 40 µM filter (Fisher Scientific, Hampton, NH, USA), washed once with 1× PBS, and incubated with trypsin 0.05% EDTA at 37 °C (Thermo Fisher Scientific, Waltham, MA, USA) to achieve a single cell suspension (approximately 10–30 min, depending on the PDAC culture). Trypsinized cells were counted and 20,000 cells were plated in wells of standard tissue culture-treated plates (Corning) and treated the following day with indicated compounds and concentrations.
# [11] = system: mouse embryonic stem cells (mESCs); experiment: mESC viability (MTS) screen and dose response; format: cell-based; details: Mus musculus, Embryonic stem cell, 30 h
# Description: as §5, §6
compound,measurement,setting,value
"C#CCCC1(CCN2CCC(CNc3ccc4ncc(C(=O)Nc5cccc(OC(F)(F)F)c5)n4n3)CC2)N=N1 [Cpd 25, 6-({1-[2-(3-But-3-ynyl-3H-diazirin-3-yl)-ethyl]-piperidin-4-ylmethyl}-amino)-imidazo [1,2-b]pyridazine-3-carboxylic acid (3-trifluoromethoxy-phenyl)-amide]",EC50,[1]; Homo sapiens,2620 nM
Nc1ccn([C@@H]2O[C@H](CO)[C@@H](O)C2(F)F)c(=O)n1 [gemcitabine],tumor formation / growth from pre-treated cells,[2],gave rise to larger tumors
same,tumor volume versus control,[3],significantly reduced
same,tumor volume versus control,"[4]; PDAC1 PDX, GEM 125 mg/kg i.p. biweekly, SIR 30 mg/kg oral gavage, 23 days",significantly reduced
same,autofluorescent-positive cells in tumors,"[4]; PDAC1 tumors, day 23, flow cytometry",marked increase
same,CSC freq,"[5]; PDAC1, Extreme Limiting Dilution Analysis, listed as GEM",1/272
same,Tumors/n (2nd generation),"[5]; PDAC1, no. cells 10^2",5/8
same,Tumors/n (2nd generation),"[5]; PDAC1, no. cells 10^3",7/8
same,CSC freq,"[6]; PDAC3, Extreme Limiting Dilution Analysis, listed as GEM",1/102
same,Tumors/n (2nd generation),"[6]; PDAC3, no. cells 10^2",5/8
same,Tumors/n (2nd generation),"[6]; PDAC3, no. cells 10^3",8/8
same,sphere-forming capacity,[7],did not affect sphere formation
same,sphere-forming capacity,[8],increased
"C#CCCC1(CC(=O)N2CCC(CNc3ccc4ncc(C(=O)Nc5cccc(OC(F)(F)F)c5)n4n3)CC2)N=N1 [Cpd 26, 6-({1-[2-(3-But-3-ynyl-3H-diazirin-3-yl)-acetyl]-piperidin-4-ylmethyl}-amino)-imidazo[1,2-b]pyridazine-3-carboxylic acid (3-trifluoromethoxy-phenyl)-amide]",effect on PDAC4 CSC viability,[1],inactive
"OC(c1cc(C(F)(F)F)nc2c(C(F)(F)F)cccc12)C1CCCCN1 (centres unmarked) [mefloquine, reference compound]",EC50,[9],7600 nM
O=C(Nc1cccc(OC(F)(F)F)c1)c1cnc2ccc(N3CCCC4(CCNCC4)C3)nn12 [Cpd 3],"viability at 30 h, 5 µM",[10],9%
same,EC50,[11],1500 nM
